According to patent US12252524B2, “GIP/GLP1 co-agonist compounds” (Eli Lilly and Company, priority 2018, dated 2025):
Numbered stars: 1 amine (or outer) side, 2 acyl side, 3 side chain; on linkers, the order of the positions; unused ones are H or OH. Square brackets hold non-standard residues; d marks the D form. Side chains are listed from the residue outwards. Peptide text beside a SMILES is read from it. * marks the point of attachment. C20 diacid = O=C(O)CCCCCCCCCCCCCCCCCCC(=O)*; αMePhe(2-F) = C[C@](N)(Cc1ccccc1F)C(=O)O; γGlu = O=C(O)[C@H](CCC(=O)[*:2])N[*:1]; αMeF = C[C@](N)(Cc1ccccc1)C(=O)O; AEEA = NCCOCCOCC(=O)O; Aib = CC(C)(N)C(=O)O

Legend:
[1] = biological target: T1, human Gcg receptor (Homo sapiens, UniProt P47871); test: [125I]-Glucagon binding (SPA), human Gcg receptor; settings: read-out: hGLcgR Ki, nM (SEM, n)
T1 construct: expressed in transfected cells; crude membranes
Procedure, shortened: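 Crude membranes from cells expressing the receptor, prepared by hypotonic lysis in 50 mM Tris HCl pH 7.5 with protease inhibitors, homogenization and differential centrifugation, were used in a WGA-bead SPA. Binding buffer: 25 mM HEPES pH 7.4, 2.5 mM CaCl2, 1 mM MgCl2, bacitracin, Tween-20.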

[2] = biological target: human GLP-1R (Homo sapiens, UniProt P43220); test: [125I]-GLP-1 binding (SPA), human GLP-1 receptor; set-up: expressed in transfected cells; crude membranes; settings: read-out: hGLP1R Ki, (nM) (SEM, n)
Procedure, shortened: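 Membranes: hypotonic lysis (50 mM Tris HCl, pH 7.5, protease inhibitors), Potter-Elvehjem homogenization, high-speed pellet (35000×g 1 h or 25000×g 30 min, 4° C.). Buffer: 25 mM HEPES pH 7.4, 2.5 mM CaCl2, 1 mM MgCl2. Four-parameter IC50 fit; Ki as geometric mean ± SEM.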

[3] = biological target: T2, gastric inhibitory peptide receptor (GIPR) (Homo sapiens, UniProt P48546); test: cAMP pharmacological functional assay in presence of casein, hGIPR; assay type: cell-based; settings: HEK293 cells expressing hGIPR, 0.1% Casein, geometric mean; read-out: hGIPR cAMP Rel EC50 nM (SEM, n)
T2 sequence (P48546 22-466): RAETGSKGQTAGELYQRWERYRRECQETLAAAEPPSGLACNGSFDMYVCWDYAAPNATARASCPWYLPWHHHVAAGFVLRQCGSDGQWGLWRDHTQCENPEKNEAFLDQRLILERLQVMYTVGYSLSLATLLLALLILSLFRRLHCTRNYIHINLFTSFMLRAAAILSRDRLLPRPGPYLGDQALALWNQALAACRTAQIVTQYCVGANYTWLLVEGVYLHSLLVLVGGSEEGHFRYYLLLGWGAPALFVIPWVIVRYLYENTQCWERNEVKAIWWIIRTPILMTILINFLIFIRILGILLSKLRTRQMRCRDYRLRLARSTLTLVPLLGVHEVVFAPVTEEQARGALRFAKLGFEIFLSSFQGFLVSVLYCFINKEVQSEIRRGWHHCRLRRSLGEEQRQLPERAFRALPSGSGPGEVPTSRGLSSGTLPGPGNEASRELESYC

[4] = biological target: T3, human GIP receptor (Homo sapiens, UniProt P48546); test: [125I]-GIP binding (SPA), human GIP receptor; settings: read-out: hGIPR Ki, nM (SEM, n)
T3 construct: expressed in transfected cells; crude membranes
T3 sequence (P48546 22-466): T2 sequence (P48546 22-466)

[5] = biological target: human GLP-1 receptor (GLP-1R) (Homo sapiens, UniProt P43220); test: cAMP pharmacological functional assay in presence of casein, hGLP-1R; assay type: cell-based; settings: HEK293 cells expressing hGLP-1R, 0.1% Casein, geometric mean; read-out: hGLP1R cAMP Rel EC50 nM (SEM, n)
Chain of human GLP-1 receptor (GLP-1R) (P43220 24-463): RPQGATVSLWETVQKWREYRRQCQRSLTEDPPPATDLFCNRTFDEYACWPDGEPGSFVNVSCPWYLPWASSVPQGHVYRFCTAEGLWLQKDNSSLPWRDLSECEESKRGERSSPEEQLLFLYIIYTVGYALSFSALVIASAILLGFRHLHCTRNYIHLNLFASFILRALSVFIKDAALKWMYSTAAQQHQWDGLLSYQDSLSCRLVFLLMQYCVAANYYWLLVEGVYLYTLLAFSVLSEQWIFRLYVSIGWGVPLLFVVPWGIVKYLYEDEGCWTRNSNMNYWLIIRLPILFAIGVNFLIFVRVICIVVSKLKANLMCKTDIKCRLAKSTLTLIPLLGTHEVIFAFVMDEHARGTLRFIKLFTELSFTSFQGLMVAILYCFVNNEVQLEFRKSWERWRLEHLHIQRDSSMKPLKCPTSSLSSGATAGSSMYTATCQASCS

T1 sequence (P47871 26-477): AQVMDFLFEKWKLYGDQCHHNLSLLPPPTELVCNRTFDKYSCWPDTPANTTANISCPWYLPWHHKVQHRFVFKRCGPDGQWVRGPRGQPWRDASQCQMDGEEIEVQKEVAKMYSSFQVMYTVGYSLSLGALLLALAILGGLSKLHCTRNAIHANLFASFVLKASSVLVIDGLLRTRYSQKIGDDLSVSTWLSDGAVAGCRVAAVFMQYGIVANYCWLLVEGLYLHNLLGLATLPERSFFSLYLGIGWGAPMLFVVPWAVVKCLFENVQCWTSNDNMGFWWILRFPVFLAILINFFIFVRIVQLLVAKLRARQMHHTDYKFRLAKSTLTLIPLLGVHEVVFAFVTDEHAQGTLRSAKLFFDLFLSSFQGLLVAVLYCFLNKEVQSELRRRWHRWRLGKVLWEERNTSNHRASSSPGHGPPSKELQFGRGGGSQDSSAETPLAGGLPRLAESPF
Chain of human GLP-1R (P43220 24-463): as the sequence (P43220 24-463) above

Row | Structure (SMILES) | Ki [1] [nM] | Ki [2] [nM] | EC50 [3] [nM] | Ki [4] [nM] | EC50 [5] [nM]
1 | CC[C@H](C)[C@H](NC(=O)[C@H](CC(C)C)NC(=O)[C@H](Cc1ccc(O)cc1)NC(=O)[C@@H](CCC(=O)O)NC(=O)[C@@H](NC(=O)[C@H](Cc1ccccc1)NC(=O)[C@H](CCC(=O)O)NC(=O)C(C)(C)NC(=O)[C@H](CCC(N)=O)NC(=O)[C@H](C)NC(=O)[C@H](CCCCNC(=O)COCCOCCNC(=O)COCCOCCNC(=O)CC[C@H](NC(=O)CCCCCCCCCCCCCCCCCCC(=O)O)C(=O)O)NC(=O)[C@H](CCC(=O)O)NC(=O)[C@H](CC(=O)O)NC(=O)[C@H](CC(C)C)NC(=O)C(C)(C)NC(=O)[C@@H](NC(=O)[C@H](CO)NC(=O)[C@H](Cc1ccc(O)cc1)NC(=O)[C@H](CC(=O)O)NC(=O)[C@H](CO)NC(=O)[C@@H](NC(=O)[C@](C)(Cc1ccccc1)NC(=O)[C@@H](NC(=O)CNC(=O)[C@H](CCC(=O)O)NC(=O)C(C)(C)NC(=O)[C@@H](N)Cc1ccc(O)cc1)[C@@H](C)O)[C@@H](C)O)[C@@H](C)CC)[C@@H](C)CC)C(=O)N[C@@H](CCC(=O)O)C(=O)NCC(=O)NCC(=O)N1CCC[C@H]1C(=O)N[C@@H](CO)C(=O)N[C@@H](CO)C(=O)NCC(=O)N[C@@H](C)C(=O)N1CCC[C@H]1C(=O)N1CCC[C@H]1C(=O)N1CCC[C@H]1C(=O)N[C@@H](CO)C(N)=O [Example 225] (H-Y[Aib]EGT[αMeF]TSDYSI[Aib]LDEK([AEEA-AEEA-γGlu-C20 diacid])AQ[Aib]EFI[dE]YLIEGGPSSGAPPPS-NH2) | 714 | 8.79 | 0.101 | 0.0622 | 0.067
2 | CC[C@H](C)[C@H](NC(=O)[C@H](CC(C)C)NC(=O)[C@H](Cc1ccc(O)cc1)NC(=O)[C@@H](CCC(=O)O)NC(=O)[C@@H](NC(=O)[C@H](Cc1ccccc1)NC(=O)[C@H](CCC(=O)O)NC(=O)C(C)(C)NC(=O)[C@H](CCC(N)=O)NC(=O)[C@H](C)NC(=O)[C@H](CCCCNC(=O)COCCOCCNC(=O)COCCOCCNC(=O)CC[C@H](NC(=O)CCCCCCCCCCCCCCCCCCC(=O)O)C(=O)O)NC(=O)[C@H](CCC(=O)O)NC(=O)[C@H](CC(=O)O)NC(=O)[C@H](CC(C)C)NC(=O)[C@H](CC(C)C)NC(=O)[C@@H](NC(=O)[C@H](CO)NC(=O)[C@H](Cc1ccc(O)cc1)NC(=O)[C@H](CC(=O)O)NC(=O)[C@H](CO)NC(=O)[C@@H](NC(=O)[C@](C)(Cc1ccccc1F)NC(=O)[C@@H](NC(=O)CNC(=O)[C@H](CCC(=O)O)NC(=O)C(C)(C)NC(=O)[C@@H](N)Cc1ccc(O)cc1)[C@@H](C)O)[C@@H](C)O)[C@@H](C)CC)[C@@H](C)CC)C(=O)N[C@@H](CCC(=O)O)C(=O)NCC(=O)NCC(=O)N1CCC[C@H]1C(=O)N[C@@H](CO)C(=O)N[C@@H](CO)C(=O)NCC(=O)N[C@@H](C)C(=O)N1CCC[C@H]1C(=O)N1CCC[C@H]1C(=O)N1CCC[C@H]1C(=O)N[C@@H](CO)C(N)=O [Example 226] (H-Y[Aib]EGT[αMePhe(2-F)]TSDYSILLDEK([AEEA-AEEA-γGlu-C20 diacid])AQ[Aib]EFI[dE]YLIEGGPSSGAPPPS-NH2) | 200 | 4.1 | 0.0461 | 0.0254 | 0.0284
